Experimental data: PubChem BioAssay (NCI)
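Test compounds were applied to cells in 96-well plates for 48 hours at 5 doses. The concentration for full growth arrest is given as TGI.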

Assays:
Assay in all cases: NCI tumour cell line growth inhibition, 48 h
MOLT-4 leukemia = tested on: MOLT-4 leukemia
T-47D breast = tested on: T-47D breast
A498 renal = tested on: A498 renal
OVCAR-3 ovarian = tested on: OVCAR-3 ovarian
SF-295 CNS = tested on: SF-295 CNS
RXF 393 renal = tested on: RXF 393 renal
MDA-MB-435 = tested on: MDA-MB-435
SR leukemia = tested on: SR leukemia
NCI-H23 lung = tested on: NCI-H23 lung
UACC-257 melanoma = tested on: UACC-257 melanoma
HCT-15 colon = tested on: HCT-15 colon
SF-539 CNS = tested on: SF-539 CNS
SK-MEL-5 melanoma = tested on: SK-MEL-5 melanoma
NCI-H226 lung = tested on: NCI-H226 lung
SNB-19 CNS = tested on: SNB-19 CNS
CAKI-1 renal = tested on: CAKI-1 renal
A549 NSCLC = tested on: A549 NSCLC
HCT-116 colon = tested on: HCT-116 colon
RPMI-8226 leukemia = tested on: RPMI-8226 leukemia
SK-MEL-2 melanoma = tested on: SK-MEL-2 melanoma
MCF7 breast = tested on: MCF7 breast
786-0 renal = tested on: 786-0 renal
SNB-75 CNS = tested on: SNB-75 CNS
HOP-92 NSCLC = tested on: HOP-92 NSCLC
ACHN renal = tested on: ACHN renal
U251 CNS = tested on: U251 CNS
HS 578T breast = tested on: HS 578T breast
MDA-N = tested on: MDA-N
EKVX NSCLC = tested on: EKVX NSCLC
OVCAR-5 ovarian = tested on: OVCAR-5 ovarian
SK-OV-3 ovarian = tested on: SK-OV-3 ovarian
HCC-2998 colon = tested on: HCC-2998 colon
OVCAR-4 ovarian = tested on: OVCAR-4 ovarian
SW-620 colon = tested on: SW-620 colon
HOP-62 NSCLC = tested on: HOP-62 NSCLC
K-562 leukemia = tested on: K-562 leukemia
CCRF-CEM leukemia = tested on: CCRF-CEM leukemia
NCI-H460 lung = tested on: NCI-H460 lung
TK-10 renal = tested on: TK-10 renal
UACC-62 melanoma = tested on: UACC-62 melanoma
UO-31 renal = tested on: UO-31 renal
SK-MEL-28 melanoma = tested on: SK-MEL-28 melanoma
MDA-MB-231 breast = tested on: MDA-MB-231 breast
SF-268 CNS = tested on: SF-268 CNS
SN12C renal = tested on: SN12C renal
HT29 colon = tested on: HT29 colon
OVCAR-8 ovarian = tested on: OVCAR-8 ovarian
MALME-3M melanoma = tested on: MALME-3M melanoma
NCI/ADR-RES ovarian = tested on: NCI/ADR-RES ovarian
KM12 colon = tested on: KM12 colon
LOX IMVI melanoma = tested on: LOX IMVI melanoma
HL-60(TB) leukemia = tested on: HL-60(TB) leukemia
NCI-H522 lung = tested on: NCI-H522 lung
PC-3 prostate = tested on: PC-3 prostate
BT-549 breast = tested on: BT-549 breast
IGROV1 ovarian = tested on: IGROV1 ovarian
COLO 205 colon = tested on: COLO 205 colon
DU-145 prostate = tested on: DU-145 prostate
LXFL 529 NSCLC = tested on: LXFL 529 NSCLC
HOP-18 NSCLC = tested on: HOP-18 NSCLC
DLD-1 colon = tested on: DLD-1 colon
KM20L2 colon = tested on: KM20L2 colon
M19-MEL melanoma = tested on: M19-MEL melanoma
DMS 273 small cell lung = tested on: DMS 273 small cell lung
M14 melanoma = tested on: M14 melanoma
XF 498 CNS = tested on: XF 498 CNS
DMS 114 small cell lung = tested on: DMS 114 small cell lung

## NC(=O)NC(=O)c1cccc(NC(=O)CCl)c1
MOLT-4 leukemia
  TGI: 15.4 µM
T-47D breast
  TGI: 27.7 µM
A498 renal
  TGI: 6.39 µM
OVCAR-3 ovarian
  TGI: 1.44 µM
SF-295 CNS
  TGI: 7.71 µM
RXF 393 renal
  TGI: 4.3 µM
MDA-MB-435
  TGI: 5.93 µM
SR leukemia
  TGI: 3.92 µM
NCI-H23 lung
  TGI: 8.14 µM
UACC-257 melanoma
  TGI: 13.6 µM
HCT-15 colon
  TGI: 9.73 µM
SF-539 CNS
  TGI: 1.5 µM
SK-MEL-5 melanoma
  TGI: 2.07 µM
NCI-H226 lung
  TGI: 5.28 µM
SNB-19 CNS
  TGI: > 26.1 µM
CAKI-1 renal
  TGI: 6 µM
A549 NSCLC
  TGI: > 28.1 µM
HCT-116 colon
  TGI: 1.83 µM
RPMI-8226 leukemia
  TGI: 13.6 µM
SK-MEL-2 melanoma
  TGI: 15.1 µM
MCF7 breast
  TGI: 9.32 µM
786-0 renal
  TGI: 3.91 µM
SNB-75 CNS
  TGI: 7.06 µM
HOP-92 NSCLC
  TGI: 15.2 µM
ACHN renal
  TGI: 12.9 µM
U251 CNS
  TGI: 2.41 µM
HS 578T breast
  TGI: > 21.7 µM
MDA-N
  TGI: 1.08 µM
EKVX NSCLC
  TGI: 26.5 µM
OVCAR-5 ovarian
  TGI: 9.49 µM
SK-OV-3 ovarian
  TGI: 8.88 µM
HCC-2998 colon
  TGI: 1.81 µM
OVCAR-4 ovarian
  TGI: 25.7 µM
SW-620 colon
  TGI: 18.9 µM
HOP-62 NSCLC
  TGI: 4.71 µM
K-562 leukemia
  TGI: > 43.4 µM
CCRF-CEM leukemia
  TGI: 4.16 µM
NCI-H460 lung
  TGI: 3.92 µM
TK-10 renal
  TGI: 6.76 µM
UACC-62 melanoma
  TGI: 2.63 µM
UO-31 renal
  TGI: 0.452 µM
SK-MEL-28 melanoma
  TGI: > 62.2 µM
MDA-MB-231 breast
  TGI: 8.38 µM
SF-268 CNS
  TGI: 8.29 µM
SN12C renal
  TGI: 4.8 µM
HT29 colon
  TGI: 7.37 µM
OVCAR-8 ovarian
  TGI: 12.7 µM
MALME-3M melanoma
  TGI: > 48.1 µM
NCI/ADR-RES ovarian
  TGI: 12 µM
KM12 colon
  TGI: 2.43 µM
LOX IMVI melanoma
  TGI: 2.17 µM
HL-60(TB) leukemia
  TGI: 1.97 µM
NCI-H522 lung
  TGI: 3.32 µM
PC-3 prostate
  TGI: 11.6 µM
BT-549 breast
  TGI: 9.03 µM
IGROV1 ovarian
  TGI: 12.7 µM
COLO 205 colon
  TGI: 2.2 µM
DU-145 prostate
  TGI: 5.42 µM

## C/C(=C\CC/C=C(\C)CC/C=C(\C)CCC1SC1(C)C)CC/C=C(\C)CCC1OC1(C)C (stereo not given)
MOLT-4 leukemia
  TGI: > 100 µM
A498 renal
  TGI: > 100 µM
OVCAR-3 ovarian
  TGI: > 100 µM
SF-295 CNS
  TGI: > 100 µM
RXF 393 renal
  TGI: > 100 µM
LXFL 529 NSCLC
  TGI: > 100 µM
SR leukemia
  TGI: > 100 µM
NCI-H23 lung
  TGI: > 100 µM
HCT-15 colon
  TGI: > 100 µM
HOP-18 NSCLC
  TGI: > 100 µM
SF-539 CNS
  TGI: > 100 µM
SK-MEL-5 melanoma
  TGI: > 100 µM
NCI-H226 lung
  TGI: > 100 µM
SNB-19 CNS
  TGI: > 100 µM
CAKI-1 renal
  TGI: > 100 µM
A549 NSCLC
  TGI: > 100 µM
HCT-116 colon
  TGI: > 100 µM
RPMI-8226 leukemia
  TGI: > 100 µM
DLD-1 colon
  TGI: > 100 µM
SK-MEL-2 melanoma
  TGI: > 100 µM
786-0 renal
  TGI: > 100 µM
SNB-75 CNS
  TGI: > 100 µM
HOP-92 NSCLC
  TGI: > 100 µM
ACHN renal
  TGI: > 100 µM
U251 CNS
  TGI: > 100 µM
EKVX NSCLC
  TGI: > 100 µM
SK-OV-3 ovarian
  TGI: > 100 µM
HCC-2998 colon
  TGI: > 100 µM
OVCAR-4 ovarian
  TGI: > 100 µM
SW-620 colon
  TGI: > 100 µM
K-562 leukemia
  TGI: > 100 µM
CCRF-CEM leukemia
  TGI: > 100 µM
NCI-H460 lung
  TGI: > 100 µM
KM20L2 colon
  TGI: > 100 µM
TK-10 renal
  TGI: > 100 µM
M19-MEL melanoma
  TGI: > 100 µM
DMS 273 small cell lung
  TGI: > 100 µM
M14 melanoma
  TGI: > 100 µM
UO-31 renal
  TGI: > 100 µM
SK-MEL-28 melanoma
  TGI: > 100 µM
SF-268 CNS
  TGI: > 100 µM
SN12C renal
  TGI: > 100 µM
HT29 colon
  TGI: > 100 µM
OVCAR-8 ovarian
  TGI: > 100 µM
MALME-3M melanoma
  TGI: > 100 µM
XF 498 CNS
  TGI: > 100 µM
DMS 114 small cell lung
  TGI: > 100 µM
KM12 colon
  TGI: > 100 µM
HL-60(TB) leukemia
  TGI: > 100 µM
NCI-H522 lung
  TGI: > 100 µM
IGROV1 ovarian
  TGI: > 100 µM
COLO 205 colon
  TGI: > 100 µM
